Assay results: US12365658B2, “Benzothia(di)azepine compounds and their use as bile acid modulators” (Albireo AB, priority 2021, dated 2025)

Assays:
[1] = system: Caco-2 cells; assay: Bidirectional permeability assay (Caco-2 cells); format: in vitro ADME; conditions: 10 μM in FaSSIF buffer, 120 minutes
Protocol: Bidirectional Permeability Assay (Caco-2 Cells)
Caco-2 cells (Evotec) were seeded at a density of 70,000 cells/well in Millicell® 24-well cell culture insert plates and maintained in an incubator (37° C., 5% CO2, 95% RH) for 21 days with media change on alternate days.
Stock solutions (10 mM) of the test compounds, atenolol (low permeability marker), propranolol (high permeability marker) and digoxin (substrate for P-gp transport pathway) were prepared in dimethylsulfoxide (DMSO). An intermediate stock solution (1 mM) was prepared by diluting 10 μL of 10 mM master stock solution with 90 μL of neat DMSO. A working stock solution (10 μM) was prepared by diluting 50 μL of 1 mM with 4950 μL of FaSSIF buffer. Post addition of compounds to the FaSSIF, samples were subjected to sonication for 2 hours, and centrifuged at 4000 RPM for 30 minutes at 37° C. The 4 mL of resultant supernatant was directly used in the assay. The final DMSO concentration in the transport experiments was 1%.
On the day of assay, Caco-2 monolayers were washed twice with transport buffer (HBSS, pH 7.4) and pre-incubated for 30 min (37° C., 5% CO2, 95% RH) in an incubator. The electrical resistance of the monolayers was measured with a Millicell®-ERS system. Monolayers with trans-epithelial electrical resistance (TEER) values greater than 350 ohm·cm^2 were selected for the assay.
The assay was conducted in absorptive direction (A2B) and secretory (B2A) directions. Transport experiments were initiated by addition of transport assay buffer (FaSSIF buffer prepared in HBSS) consisting of compounds to the donor compartment (apical chamber A-B; basolateral chamber B-A) in duplicate (n=2) wells. Drug free HBSS buffer (pH 7.4) containing 1% bovine serum albumin (BSA) was introduced to the receiver (A-B-basolateral; B-A-Apical) compartments. The volumes of apical and basolateral compartments were 0.4 and 0.8 mL, respectively. After adding dosing solution, plates were incubated in an incubator for 120 minutes at 37° C. After 120 minutes, donor and receiver samples were collected and matrix matched (1:1, 30 μL study sample+30 μL blank buffer) with the opposite buffer. Dosing samples matrix matched (1:1, 30 μL study sample+30 μL blank buffer) with the opposite buffer. Samples were processed by adding acetonitrile containing internal standard (60 μL study sample+200 μL acetonitrile containing internal standard-Tolbutamide, 500 ng/mL). Samples were vortexed and centrifuged at 4000 rpm for 10 minutes. The obtained supernatant (100 μL) was diluted with 100 μL of water and transferred to fresh 96 well plates. The concentration of compounds in the samples was analyzed by liquid chromatography tandem mass spectrometry (LC-MS/MS) method using discovery grade bio-analytical method, as applicable.
The mean apparent permeability (Papp, ×10^−6 cm/sec) of the test compounds, atenolol, propranolol and digoxin were calculated as follows:
where dq/dt=rate of transport (rate of transport of compound in the receiver compartment), C0=initial concentration in the donor compartment, A=surface area of the effective filter membrane.

[2] = biological target: T1, Human LBAT (Homo sapiens, UniProt Q14973); assay: LBAT (h/m) assay, human LBAT-overexpressing cells, 3H-taurocholic acid uptake; format: cell-based; conditions: 0.3 μM 3H-taurocholic acid and 7.5 μM cold taurocholic acid, 20 minutes, read-out: hLBAT IC50
T1 construct: expressed in transfected cells; kept under Geneticin selection
T1 sequence (Q14973 1-349): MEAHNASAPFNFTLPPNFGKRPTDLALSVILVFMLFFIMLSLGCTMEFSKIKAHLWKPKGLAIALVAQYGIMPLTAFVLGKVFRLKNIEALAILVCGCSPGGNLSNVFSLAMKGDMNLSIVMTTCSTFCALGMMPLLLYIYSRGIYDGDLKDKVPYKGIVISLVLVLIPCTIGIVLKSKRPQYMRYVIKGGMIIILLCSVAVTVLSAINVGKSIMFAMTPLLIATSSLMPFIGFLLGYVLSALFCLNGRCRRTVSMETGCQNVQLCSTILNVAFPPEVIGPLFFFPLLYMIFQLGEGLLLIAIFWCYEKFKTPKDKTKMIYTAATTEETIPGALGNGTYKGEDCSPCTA
Protocol: LBAT (h/m) Assay Protocol
20,000 cells (Human or Mouse LBAT-overexpressing cells) were seeded in 96-wells plate (Corning CLS3809) in 100 μL MEM-alpha medium (Gibco 12571-063) supplemented with 10% FBS (Gibco 10438026) containing Geneticin (Gibco 10131-027) (1 mg/mL) and incubated at 37° C. in 5% CO2 for 24 hours. After incubation, media was decanted from the wells and cells were washed two times with 300 μL of basal MEM-alpha medium (FBS-free). After decanting basal MEM-alpha medium each time, plates were tapped against paper towel to ensure maximum removal of residual media.
For human LBAT, incubation mix was prepared by adding test inhibitor dilutions (3-fold serial dilution in DMSO (Sigma D2650), 10 points) in MEM-alpha (without FBS) containing 0.3 μM 3H-taurocholic acid (ARC ART-1368) and 7.5 μM cold taurocholic acid (Sigma T4009) (maintaining 0.2% final DMSO concentration). For mouse LBAT, incubation mix was prepared by adding test inhibitor dilutions (3-fold serial dilution in DMSO, 10 points) in MEM-alpha (without FBS) containing 0.3 μM 3H-taurocholic acid and 25 μM cold taurocholic acid maintaining 0.2% final DMSO concentration).
50 μL of incubation mix containing test inhibitors was then added to the wells (in duplicate) and the plates were incubated for 20 minutes in a CO2 incubator at 37° C. After incubation, the reaction was stopped by keeping the plates on ice water mix for 2-3 minutes and then the incubation mix was aspirated completely from the wells. The wells were washed two times with 250 μL of chilled unlabelled 1 mM taurocholic acid dissolved in HEPES (Gibco 15630080)-buffered (10 mM) HBSS (Gibco 14175079) (pH 7.4). The plates were tapped against a paper towel after every wash to ensure maximum removal of blocking buffer.
100 μL of MicroScint-20 (PerkinElmer 6013621) was added to the wells and kept overnight at room temperature before reading the plates in TopCount NXT™ Microplate Scintillation and Luminescence Counter from PerkinElmer under 3H Test protocol (set at 120 seconds reading time per well, with normal plate orientation).
(§1) Preparation of Test Compound Dilutions
(§2) All test compounds were provided in powder form at room temperature. 10 mM DMSO stocks of the test compounds were prepared, aliquoted and stored at −20° C. From the 10 mM DMSO stock of the compounds, a 3-fold serial dilution in DMSO was prepared to get a total of 10 dilutions of the test compounds. 0.5 μL of this dilution in DMSO was added to 250 μL of FBS-free basal media containing 3H-taurocholic acid and cold taurocholic acid to prepare the incubation mixture.

[3] = Bioavailability studies; format: in vivo, Male mice (C57BL/6 or CD1) or Wistar rats; conditions: male, plasma; single intravenous dose 1 mg/kg and single oral dose 10 mg/kg; species per compound not given
Protocol: Male mice (C57BL/6 or CD1) or Wistar rats of 8-9 weeks old were used. For each test compound, two groups of 3 animals each were used. One group was administered a single intravenous dose of 1 mg/kg (vehicle 100% DMSO) through the tail vein and the other group was administered a single oral dose of 10 mg/kg through gavage needle. The group that was administered an oral dose was fasted overnight. Blood samples were collected after 0.083, 0.25, 0.5, 1, 2, 4, 6, 8 and 24 hours following intravenous administration, and after 0.25, 0.5, 1, 2, 4, 6, 8 and 24 hours following oral administration. Blood samples were taken from saphenous vein. 0.2% EDTA was used as the anticoagulant. The samples were analyzed by a discovery grade bioanalytical method developed for the estimation of test compound in plasma, using an LC-MS/MS system.

[4] = biological target: T2, Human IBAT (Homo sapiens, UniProt Q12908); assay: IBAT (h/m) assay, human IBAT-overexpressing cells, 3H-taurocholic acid uptake; format: cell-based; conditions: 0.25 μM 3H-taurocholic acid and 5 μM cold taurocholic acid, 20 minutes, highest test concentration 10 μM, read-out: hIBAT IC50
T2 construct: expressed in transfected cells; kept under Puromycin selection
T2 sequence (Q12908 1-348): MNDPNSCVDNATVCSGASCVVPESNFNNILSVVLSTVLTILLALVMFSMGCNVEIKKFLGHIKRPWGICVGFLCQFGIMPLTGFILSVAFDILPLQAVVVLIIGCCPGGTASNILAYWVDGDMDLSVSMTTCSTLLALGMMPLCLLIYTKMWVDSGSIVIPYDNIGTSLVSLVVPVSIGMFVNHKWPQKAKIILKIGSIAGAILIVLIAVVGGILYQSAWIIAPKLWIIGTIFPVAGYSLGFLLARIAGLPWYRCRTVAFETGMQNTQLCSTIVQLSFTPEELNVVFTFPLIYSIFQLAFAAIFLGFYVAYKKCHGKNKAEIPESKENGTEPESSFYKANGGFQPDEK
Protocol: IBAT (h/m) Assay Protocol
10,000 cells (Human or Mouse IBAT-overexpressing cells) were seeded in 96-wells plate (Corning CLS3809) in 200 μL MEM-alpha medium (Gibco 12571-063) supplemented with 10% FBS (Gibco 10438026) containing Puromycin (Gibco A1113803) (10 μg/mL) and incubated at 37° C. in 5% CO2 for 48 hours. After incubation, media was decanted from the wells and cells were washed two times with 300 μL of basal MEM-alpha medium (FBS-free). After decanting basal MEM-alpha medium each time, plates were tapped against paper towel to ensure maximum removal of residual media. Test inhibitor dilutions (highest test concentration being 10 μM, 3-fold serial dilution, 10 points) prepared in DMSO (Sigma D2650) were added in incubation mix (maintaining 0.2% final DMSO concentration) containing 0.25 μM 3H-taurocholic acid (ARC ART-1368) and 5 μM of cold taurocholic acid (Sigma T4009). 50 μL of incubation mix containing test inhibitors was then added to the wells (in duplicate) and the plates were incubated for 20 minutes in a CO2 incubator at 37° C. After incubation, the reaction was stopped by keeping the plates on ice water mix for 2-3 minutes and then the incubation mix was aspirated completely from the wells. The wells were washed two times with 250 μL of chilled unlabelled 1 mM taurocholic acid dissolved in HEPES (Gibco 15630080)-buffered (10 mM) HBSS (Gibco 14175079) (pH 7.4). The plates were tapped against a paper towel after every wash to ensure maximum removal of blocking buffer.
100 μL of MicroScint-20 (PerkinElmer 6013621) was added to the wells and kept overnight at room temperature before reading the plates in TopCount NXT™ Microplate Scintillation and Luminescence Counter from PerkinElmer under 3H Test protocol (set at 120 seconds reading time per well).
as §1, §2

Row | SMILES | Permeability (Caco-2) Papp A2B ([1]; absorptive direction (A2B)) [×10⁻⁶ cm/s] | Permeability (Caco-2) Papp B2A ([1]; secretory direction (B2A)) [×10⁻⁶ cm/s] | IC50 [2] [nM] | bioavailability [3] [%] | IC50 [4] [nM]
1 | CCCCC1CN(c2ccc(F)cc2)c2cc(SC)c(OCC(C)(C)C(=O)O)cc2S(=O)(=O)N1C (single isomer, unassigned) [14, enantiomer 2] | 12.2 | 7.3 | 3 | 100 | 
2 | CCCCC1CN(c2ccc(F)cc2)c2cc(SC)c(OCC3(C(=O)O)CC3)cc2S(=O)(=O)N1 (stereo not drawn) [Example 16, 1-(((3-butyl-5-(4-fluorophenyl)-7-(methylthio)-1,1-dioxido-2,3,4,5-tetrahydro-1,2,5-benzothiadiazepin-8-yl)oxy)methyl)cyclopropane-1-carboxylic acid] |  |  | 3.4 |  | 464
3 | CCCCC1CN(c2ccc(F)cc2)c2cc(SC)c(OCC(C)(C)C(=O)O)cc2S(=O)(=O)C1 (stereo not drawn) [Example 9, 3-((3-butyl-5-(4-fluorophenyl)-7-(methylthio)-1,1-dioxido-2,3,4,5-tetrahydro-1,5-benzothiazepin-8-yl)oxy)-2,2-dimethylpropanoic acid] |  |  | 5.3 |  | 2700
4 | CCCCC1CN(c2ccccc2)c2cc(SC)c(OCC(F)(F)C(=O)O)cc2S(=O)(=O)N1C (stereo not drawn) [Example 20, 3-((3-butyl-2-methyl-7-(methylthio)-1,1-dioxido-5-phenyl-2,3,4,5-tetrahydro-1,2,5-benzothiadiazepin-8-yl)oxy)-2,2-difluoropropanoic acid] |  |  | 1.1 |  | 259
5 | CCCCC1CN(c2ccc(F)cc2)c2cc(SCC)c(OCC3(C(=O)O)CC3)cc2S(=O)(=O)N1 (stereo not drawn) [Example 18, 1-(((3-butyl-7-(ethylthio)-5-(4-fluorophenyl)-1,1-dioxido-2,3,4,5-tetrahydro-1,2,5-benzothiadiazepin-8-yl)oxy)methyl)cyclopropane-1-carboxylic acid] |  |  | 3.3 |  | 460
6 | CCCCC1CN(c2ccccc2)c2cc(SC)c(OCC3(C(=O)O)CC3)cc2S(=O)(=O)N1C (single isomer, unassigned) [4, enantiomer 1] |  |  | 673 |  | ≥ 10000
7 | CCCCC1CN(c2ccccc2)c2cc(SC)c(OCC(F)(F)C(=O)O)cc2S(=O)(=O)N1C (single isomer, unassigned) [21, enantiomer 1] |  |  | > 333 |  | > 10000
8 | CCCCC1CN(c2ccccc2)c2cc(SC)c(OCC(C)(C)C(=O)O)cc2S(=O)(=O)N1C (single isomer, unassigned) [2, enantiomer 1] |  |  | 2280 |  | ≥ 10000
